Results as given in ChEMBL document CHEMBL5126659, “Antiasthmatic Compounds Targeting β2-Adrenergic Receptor from Perilla frutescens Improved Lung Inflammation by Inhibiting the NF-κB Signaling Pathway” (J Nat Prod, 2022).
The source made the active and inactive calls.

Legend:
Assay type in all cases: functional, organism-based
[1] = tested on: Rattus norvegicus; assay: Anti-asthmatic activity against ovalbumin-induced asthmatic Sprague-Dawley rat model assessed as reduction in total IgE level in BALF at 4.5 to 18 mg/kg, po for 7 days by ELISA; settings: dose 4.5-18 mg/kg, time 7.0 day
[2] = tested on: Rattus norvegicus; assay: Anti-asthmatic activity against ovalbumin-induced asthmatic Sprague-Dawley rat model assessed as reduction in OVA specific IgE level in serum at 4.5 to 18 mg/kg, po for 7 days by ELISA; settings: dose 4.5-18 mg/kg, time 7.0 day
[3] = tested on: Rattus norvegicus; assay: Anti-asthmatic activity against ovalbumin-induced asthmatic Sprague-Dawley rat model assessed as reduction in IL-13 cytokine level in BALF at 4.5 to 18 mg/kg, po for 7 days by ELISA; settings: dose 4.5-18 mg/kg, time 7.0 day
[4] = tested on: Rattus norvegicus; assay: Anti-asthmatic activity against ovalbumin-induced asthmatic Sprague-Dawley rat model assessed as reduction in YM2 mRNA expression in lungs at 4.5 to 18 mg/kg, po for 7 days by qRT-PCR analysis; settings: dose 4.5-18 mg/kg, time 7.0 day
[5] = tested on: Rattus norvegicus; assay: Anti-asthmatic activity against ovalbumin-induced asthmatic Sprague-Dawley rat model assessed as reduction in OVA specific IgE level in BALF at 4.5 to 18 mg/kg, po for 7 days by ELISA; settings: dose 4.5-18 mg/kg, time 7.0 day
[6] = tested on: Rattus norvegicus; assay: Anti-asthmatic activity against ovalbumin-induced asthmatic Sprague-Dawley rat model assessed as reduction in NFkappaB protein expression in lungs at 4.5 to 18 mg/kg, po for 7 days by immunohistochemistry analysis; settings: dose 4.5-18 mg/kg, time 7.0 day
[7] = tested on: Rattus norvegicus; assay: Anti-asthmatic activity against ovalbumin-induced asthmatic Sprague-Dawley rat model assessed as reduction in OVA specific IgE level in BALF at 4.5 to 9 mg/kg, po for 7 days by ELISA; settings: dose 4.5-9 mg/kg, time 7.0 day, DDE = dose-dependent effect
[8] = tested on: Rattus norvegicus; assay: Anti-asthmatic activity against ovalbumin-induced asthmatic Sprague-Dawley rat model assessed as reduction in CCL11 mRNA expression in lungs at 4.5 to 18 mg/kg, po for 7 days by qRT-PCR analysis; settings: dose 4.5-18 mg/kg, time 7.0 day
[9] = tested on: Rattus norvegicus; assay: Anti-asthmatic activity against ovalbumin-induced asthmatic Sprague-Dawley rat model assessed as reduction in IL-5 cytokine level in BALF at 4.5 to 18 mg/kg, po for 7 days by ELISA; settings: dose 4.5-18 mg/kg, time 7.0 day
[10] = tested on: Rattus norvegicus; assay: Anti-asthmatic activity against ovalbumin-induced asthmatic Sprague-Dawley rat model assessed as reduction in AMCase mRNA expression in lungs at 4.5 to 18 mg/kg, po for 7 days by qRT-PCR analysis; settings: dose 4.5-18 mg/kg, time 7.0 day
[11] = tested on: Rattus norvegicus; assay: Anti-asthmatic activity against ovalbumin-induced asthmatic Sprague-Dawley rat model assessed as reduction in OVA specific IgE level in serum at 4.5 to 9 mg/kg, po for 7 days by ELISA; settings: dose 4.5-9 mg/kg, time 7.0 day, DDE = dose-dependent effect
[12] = tested on: Rattus norvegicus; assay: Anti-asthmatic activity against ovalbumin-induced asthmatic Sprague-Dawley rat model assessed as reduction in E-selectin mRNA expression in lungs at 4.5 to 18 mg/kg, po for 7 days by qRT-PCR analysis; settings: dose 4.5-18 mg/kg, time 7.0 day
[13] = tested on: Rattus norvegicus; assay: Anti-asthmatic activity against ovalbumin-induced asthmatic Sprague-Dawley rat model assessed as reduction in total IgE level in serum at 4.5 to 18 mg/kg, po for 7 days by ELISA; settings: dose 4.5-18 mg/kg, time 7.0 day
[14] = tested on: Rattus norvegicus; assay: Anti-asthmatic activity against ovalbumin-induced asthmatic Sprague-Dawley rat model assessed as reduction in eotaxin level in BALF at 4.5 to 18 mg/kg, po for 7 days by ELISA; settings: dose 4.5-18 mg/kg, time 7.0 day
[15] = tested on: Rattus norvegicus; assay: Anti-asthmatic activity against ovalbumin-induced asthmatic Sprague-Dawley rat model assessed as reduction in NFkappaB protein expression in lungs at 4.5 to 18 mg/kg, po for 7 days by western blot analysis; settings: dose 4.5-18 mg/kg, time 7.0 day
[16] = tested on: Rattus norvegicus; assay: Anti-asthmatic activity against ovalbumin-induced asthmatic Sprague-Dawley rat model assessed as reduction in IL-4 cytokine level in BALF at 4.5 to 18 mg/kg, po for 7 days by ELISA; settings: dose 4.5-18 mg/kg, time 7.0 day
[17] = tested on: Rattus norvegicus; assay: Anti-asthmatic activity against ovalbumin-induced asthmatic Sprague-Dawley rat model assessed as reduction in inflammatory cell infiltration in lungs at 4.5 to 18 mg/kg, po for 7 days by H and E staining based microscopic analysis; settings: dose 4.5-18 mg/kg, time 7.0 day
[18] = tested on: Rattus norvegicus; assay: Anti-asthmatic activity against ovalbumin-induced asthmatic Sprague-Dawley rat model assessed as reduction in airway epithelial thickening in lungs at 4.5 to 18 mg/kg, po for 7 days by H and E staining based microscopic analysis; settings: dose 4.5-18 mg/kg, time 7.0 day
[19] = tested on: Rattus norvegicus; assay: Anti-asthmatic activity against ovalbumin-induced asthmatic Sprague-Dawley rat model assessed as reduction in CCR3 mRNA expression in lungs at 4.5 to 18 mg/kg, po for 7 days by qRT-PCR analysis; settings: dose 4.5-18 mg/kg, time 7.0 day

Measured: Activity

O=C(/C=C/c1ccc(O)c(O)c1)O[C@H](Cc1ccc(O)c(O)c1)C(=O)O
active: [1] | [2] | [3] | [4] | [5] | [6] | [7] Dde | [8] | [9] | [10] | [11] Dde | [12] | [13] | [14] | [15] | [16] | [17] | [18] | [19]
